≈ marks a conversion by molar mass, not a printed value. Where “and” joins values, the source holds several entries; their conditions need not be identical. Identical values can stand only once. Like-named read-outs stand apart in the source and are kept apart here.
Tests used:
[1] = Preliminary thermal stability, heating at 100 °C for 5 min; assay type: physicochemical; details: monitored by 1H NMR and LC-MS
Description: In addition, we checked the preliminary thermal stability of two representative 3‐oxabicyclo[3.1.1]heptanes: carboxylic acid 11b and N‐Boc amino acid 40.

[2] = physchem
[3] = design: method as in earlier work; details: cited from earlier work
[4] = Metabolic stability in human liver microsomes; assay type: in vitro ADME; details: for remaining at […], 2 µM: 15 min
Experimental: 9. Metabolic Stability in Human Liver Microsomes
The objective of this study was to determine the metabolic stability of 3 test articles (EN300- […]
in human liver microsomes at five-time points over 40 minutes using HPLC-MS. Metabolic stability is defined as the percentage of parent compound lost over time in the presence of a metabolically active test system.
Potassium phosphate monobasic (Bio-Basic, Canada; Lot #N9016010)
Potassium phosphate dibasic (Bio-Basic, Canada; Lot #MA7100050) […]
Glucose-6-phosphate dehydrogenase from baker's yeast, type XV (Sigma-Aldrich, USA; Cat […]
D-Glucose-6-phosphate sodium salt (Sigma-Aldrich, USA; Cat #G7879-1G)
NADPH tetrasodium salt (BLD Pharmatech Ltd., Cat #BD116582)
Verapamil hydrochloride (Sigma Aldrich, USA; Cat #V4629)
Niclosamide (Sigma-Aldrich, USA; Cat #N3510)
DMSO stock solutions of the tested compounds 20 mM
Gradient HPLC system (Shimadzu)
Triple quadrupole mass-detector API 3000 with TurboIonSpray Ion Source (AB Sciex, Canada) […]
Multichannel pipettors 1-30 µL, 2-125 µL, 30-850 µL (Thermo Scientific) […]
All measurements were performed using the Shimadzu HPLC system including vacuum degasser, gradient pumps, reverse phase HPLC column, column oven, and autosampler. Mass spectrometric analysis was performed using an API 3000 mass spectrometer from Applied Biosystems/MDS Sciex (AB Sciex) with Turbo V ion source and TurboIonspray interface. The […]
and system control were performed using Analyst 1.6.3 software from AB Sciex.
Microsomal incubations were carried out in 96-well plates in 5 aliquots of 30 μL each (one for each time point). Liver microsomal incubation medium comprised of phosphate buffer (100 mM, pH 7.4), MgCl2 (3.3 mM), NADPН (3 mM), glucose-6-phosphate (5.3 mM), glucose-6-phosphate dehydrogenase (0.67 units/mL) with 0.42 mg of liver microsomal protein per mL. In the control reactions, the NADPH-cofactor system was substituted with phosphate buffer. Test compounds […]
100 rpm. Five-time points over 40 minutes were analyzed. The reactions were stopped by adding 5 volumes of acetonitrile with internal standard to incubation aliquots, followed by protein sedimentation by centrifuging at 5500 rpm for 5 min. Each reaction was performed in duplicates.
Supernatants were analyzed using the HPLC system coupled with a tandem mass spectrometer.
The elimination constant (kel), half-life (t1/2), and intrinsic clearance (Clint) were determined in a plot of […] versus time, using linear regression analysis:1
1 In order to indicate the quality of the linear regression analysis, the R2 (determination coefficient) values are provided.
In some cases, the last time point is excluded from the calculations to ensure acceptable logarithmic linearity of decay.

[5] = system: Hedgehog signaling pathway; details: Mus musculus, NIH3T3, read-out: IC50 (HH signal): inhibition of the Hedgehog signaling pathway, Gli reporter NIH3T3 cell line
[6] = Kinetic solubility in phosphate-buffered saline, pH 7.4; assay type: physicochemical; details: for solubility at 2 h: PBS solubility
Experimental: page 239: 7. […] The data […] analysis software. […] page 240: Methods Kinetic solubility assay was performed according to Enamine's aqueous solubility SOP. Briefly, […] theoretical concentration of 400 μM in duplicates in phosphate-buffered saline pH 7.4 […] The experimental compound dilutions in PBS were further allowed to equilibrate at 25 °C on a thermostatic shaker for two hours and then filtered through HTS filter plates using a vacuum manifold. The filtrates of test […] prepared to theoretical concentrations of 0 μM (blank), 10 μM, 25 μM, 50 μM, 100 μM, and 200 […] Ondansetron was used as a reference compound to control proper assay performance. 200 μL of each sample was transferred to a 96-well plate and measured in the 230-550 nm range with a 5 nm step. The concentrations of compounds in PBS filtrate are calculated using a dedicated Microsoft Excel calculation script. Proper absorbance wavelengths for calculations are selected for each compound manually based on absorbance maximums (absolute absorbance unit values for the minimum and maximum concentration points within the 0 - 3 OD range). Each final dataset is visually evaluated by the operator, and goodness of fit (R2) is calculated for each calibration curve. […] close to the upper limit of the range may have higher actual solubility (e.g. 5'-deoxy-5- fluorouridine). The calibration curves are shown in Appendix*. […] Compound ID PBS solubility, pH 7.4, μM SE […] Ondansetron 128 126 127** 1.1 EN300-7362818 6 6 6 0.2 (Sonidegib) BCHep-Sonidegib (50) 5 3 4 0.9 Table S3. 2nd batch PBS solubility, pH 7.4, μM Compound ID SE […] Ondansetron 124 124 124** 0.1 EN300-45381956 (51) 34 34 34 0.2 *Goodness of fit (R2) in all titration curves as well as the variations between repeat measurements indicates a high quality of the experimental data in the current batch of test articles. **Ondansetron solubility data are consistent with those previously obtained. […]

[7] = Experimental pKa of carboxylic acids; assay type: physicochemical; details: for pKa: read-out: pKa (exp.)
Description: We also studied the influence of the replacement of the methylene group for the oxygen atom in the bicyclo[3.1.1]heptane skeleton on the electronic properties. For that, we experimentally measured pK a values of the bicyclo[3.1.1]heptane carboxylic acid 49, the 3‐oxabicyclo[3.1.1]heptane carboxylic acid 18b, and meta‐methyl benzoic acid (48) as a reference (Figure 5).^[ [34] ^]

[8] = in vitro; details: human, 90 min, no verapamil; for Papp A→B: Caco-2, pH 7.4, Papp (AB); for Papp B→A: Caco-2, pH 7.4, Papp (BA)
[9] = Table S4, 1st batch, incubation 1
[10] = Table S4, 1st batch, incubation 2
[11] = Table S4, 1st batch, incubation 3
[12] = both sexes, human, liver microsomes, pH 7.4, Table S6, 1st batch, 2 µM
[13] = 25 °C, pH 7.4, aqueous buffer, kinetic from dmso stock, pH 7.4, Incubation 1
[14] = 25 °C, pH 7.4, aqueous buffer, kinetic from dmso stock, pH 7.4, Incubation 2
[15] = 25 °C, pH 7.4, aqueous buffer, kinetic from dmso stock, pH 7.4, Mean

Compound: O=C(O)C12COCC(c3ccc(Br)cc3)(C1)C2 [Compound 11b]
- thermal stability [1]: remained stable

Compound: COC(=O)Nc1nc2ccc(C(=O)c3ccccc3)cc2[nH]1 [Mebendazole]
- D [9]: 8.21E+02
- D [10]: 8.87E+02
- D [11]: 8.17E+02
- D (Table S5, 2nd batch, incubation 1): 9.52E+02
- D (Table S5, 2nd batch, incubation 2): 1.14E+03
- D (Table S5, 2nd batch, incubation 3): 8.63E+02
- logD at 1 h ([2]; pH 7.4, LogD, pH 7.4): 3.06

Compound: Cc1cccc(C(=O)O)c1 [Compound 48, meta‐methyl benzoic acid]
- pKa (exp.) [3]: 4.27 and 4.3

Compound: O=C(O)Cc1ccccc1Nc1c(Cl)cccc1Cl [Diclofenac]
- % Remaining, Mean of 2 ([4]; Table S6, 1st batch, 25 min, 2 µM): 4%
- % Remaining without cofactor, Mean of 2 ([4]; Table S6, 1st batch, 40 min, no NADPH): 95%
- % Remaining, Mean of 2 ([4]; Table S7, 2nd batch, 25 min, 2 µM): 11%
- % Remaining, Mean of 2 ([4]; Table S7, 2nd batch, 40 min, 2 µM): 2%
- remaining at 7 min, 2 µM [4, 12]: 46%
- remaining at […], 2 µM [4, 12]: 15%
- remaining at […], 2 µM ([4]; both sexes, human, liver microsomes, pH 7.4, Table S7, 2nd batch, 2 µM): 26%
- microsomal CLint at 2 μM ([4]; both sexes, human, liver microsomes, pH 7.4, Table S7, 2nd batch, read-out: Clint): 223 µL/min/mg

Compound: CC1CN(c2ccc(NC(=O)C34CCCC(c5ccc(OC(F)(F)F)cc5)(C3)C4)cn2)CC(C)O1 (centres unmarked) [Compound 50]
- IC50 [5]: 616 nM
- D [9]: 8.66E+04
- D [10]: 8.31E+04
- D [11]: 8.70E+04
- logD at 1 h ([2]; pH 7.4, LogD, pH 7.4): ≥ 4.5
- logD at 1 h ([2]; pH 7.4, LogD, pH 7.4 (overall of 3 incubations)): ≥ 4.5
- logD at 1 h ([2]; pH 7.4, logD (7.4): experimental distribution coefficient in n-octanol/phosphate-buffered saline, pH 7.4): ≥ 4
- solubility kinetic at 2 h ([6]; 25 °C, pH 7.4, aqueous buffer, kinetic from dmso stock): 4 µM (≈ 1.96 µg/mL)
- solubility at 2 h [6, 13]: 5 µM (≈ 2.45 µg/mL)
- solubility at 2 h [6, 14]: 3 µM (≈ 1.47 µg/mL)
- solubility at 2 h [6, 15]: 4 µM (≈ 1.96 µg/mL)
- half-life at 2 μM ([4]; both sexes, human, human liver microsomes, pH 7.4, human liver microsomes, read-out: t1/2: experimental half-time of a metabolic decomposition): 2 h
- microsomal CLint at 2 μM ([4]; both sexes, human, human liver microsomes, pH 7.4, read-out: CLint: experimental metabolic stability in human liver microsomes): 14 µL/min/mg
- remaining at 7 min, 2 µM [4, 12]: 92%
- remaining at […], 2 µM [4, 12]: 98%
- remaining at 25 min, 2 µM ([4]; both sexes, human, liver microsomes, pH 7.4, Table S6, 1st batch, 25 min, 2 µM): 88%
- remaining at 40 min, 2 µM ([4]; both sexes, human, liver microsomes, pH 7.4, Table S6, 1st batch, 40 min, 2 µM, read-out: % Remaining, Mean of 2): 78%
- remaining at 40 min, 2 µM ([4]; both sexes, human, liver microsomes, pH 7.4, Table S6, 1st batch, 40 min, no NADPH, read-out: % Remaining without cofactor, Mean of 2): 93%
- k el at 2 µM ([4]; both sexes, human, liver microsomes, pH 7.4, Table S6, 1st batch): ~0.0001 s⁻¹
- microsomal CLint at 2 μM ([4]; both sexes, human, liver microsomes, pH 7.4, Table S6, 1st batch, read-out: Clint): ~14 µL/min/mg
- half-life at 2 μM ([4]; both sexes, human, liver microsomes, pH 7.4, Table S6, 1st batch, read-out: t1/2): ~2 h

Compound: CC12CCCC(C(=O)O)(C1)C2 [Compound 49]
- pKa (exp.) [7]: 5.0
- pKa [7]: 5.03

Compound: CC(C)(C)OC(=O)NC12COCC(C(=O)O)(C1)C2 [Compound 40]
- thermal stability [1]: remained stable

Compound: CC(C(=O)O)c1cccc(C(=O)c2ccccc2)c1 (centres unmarked) [Ketoprofen]
- Papp A→B ([8]; Mean, 10 µM): 21.8 ×10⁻⁶ cm/s
- Papp A→B ([8]; replicate 1, 10 µM): 19.8 ×10⁻⁶ cm/s
- Papp A→B ([8]; replicate 2, 10 µM): 23.8 ×10⁻⁶ cm/s
- Papp B→A ([8]; Mean, 10 µM): 18.7 ×10⁻⁶ cm/s
- Papp B→A ([8]; replicate 1, 10 µM): 19.5 ×10⁻⁶ cm/s
- Papp B→A ([8]; replicate 2, 10 µM): 17.9 ×10⁻⁶ cm/s

Compound: Cc1nccn1CC1CCc2c(c3ccccc3n2C)C1=O (centres unmarked) [Ondansetron]
- solubility at 2 h [6, 13]: 124 µM (≈ 36.4 µg/mL)
- solubility at 2 h [6, 14]: 124 µM (≈ 36.4 µg/mL)
- solubility at 2 h [6, 15]: 124 µM (≈ 36.4 µg/mL)
- PBS solubility, pH 7.4, Mean ([6]; Table S2, 1st batch): 127 µM

Compound: CC12COCC(C(=O)O)(C1)C2 [Compound 18b]
- pKa (exp.) [7]: 4.2
- pKa [7]: 4.23
